In PMC4030749 (Molecular cancer therapeutics, 2012):
Values joined by “and” are separate entries in the source; they are usually repeats but may differ in a detail not shown here. Identical values can stand only once.

How the values were obtained:
Sm3e/C825 bsAb [1] = assay: Binding affinity of Sm3e/C825 bsAb; settings: unlabeled (no metal) DOTA
Sm3e/C825 bsAb [2] = settings: read-out: binding affinity (KD) to bsAb; cited from earlier work
[3] = tested on: LS174T and C6 tumor-bearing mice; assay: Pretargeted organ/tissue biodistribution in tumor-bearing mice; type: in vivo
[4] = pretargeted protocol, 24 h p.i., n=3
[5] = pretargeted protocol, 4 h p.i., n=3
[6] = pretargeted protocol, 48 h p.i., n=3

Compound: O=C(O)CN1CCN(CC(=O)O)CCN(CC(=O)O)CCN(CC(=O)O)CC1 [DOTA, 1,4,7,10-Tetraazacyclododecane-1,4,7,10-tetraacetic acid]
- binding to pretargeted anti-DOTA binding sites (Sm3e/C825 bsAb [1]): no observable binding

Compound: O=C([O-])CN1CCN(CC(=O)[O-])CCN(CC(=O)[O-])CCN(CC(=O)[O-])CC1.[111In+3] [^111In-DOTA]
- Kd (Sm3e/C825 bsAb [2]): 0.02 µM
- Biodistribution, LS174T Tumor (antigen-positive) [3, 4]: 0.5 ± 0.1 %ID/g
- Tumor/organ ratio, LS174T tumor-to-Kidneys (both) [3, 4]: 1.2 ± 0.4

Compound: O=C([O-])CN1CCN(CC(=O)[O-])CCN(CC(=O)[O-])CCN(CC(=O)[O-])CC1.[177Lu+3].[H+] [^177Lu-DOTA]
- Kd (Sm3e/C825 bsAb [2]): 0.0004 µM
- antigen-positive tumor uptake, pretargeted versus ^177Lu-DOTA alone ([3]; 4 h post-injection): approximately 90 fold
- Biodistribution, Adipose [3, 5]: 2.78 ± 1.08 %ID/g
- Biodistribution, Blood [3, 5]: 0.42 ± 0.02 %ID/g
- Biodistribution, Bone (femur) [3, 5]: 1.49 ± 0.38 %ID/g
- Biodistribution, C6 Tumor (antigen-negative) [3, 5]: 9.82 ± 0.35 (0.26 ± 0.08 g) %ID/g
- Biodistribution, Heart [3, 5]: 0.25 ± 0.16 %ID/g
- Biodistribution, Kidneys (both) [3, 5]: 0.92 ± 0.05 %ID/g
- Biodistribution, LS174T Tumor (antigen-positive) [3, 5]: 7.44 ± 0.41 (0.09 ± 0.03 g) %ID/g
- Biodistribution, Lg Intestine [3, 5]: 0.13 ± 0.09 %ID/g
- Biodistribution, Liver [3, 5]: 0.59 ± 0.21 %ID/g
- Biodistribution, Lung [3, 5]: 1.25 ± 0.43 %ID/g
- Biodistribution, Muscle [3, 5]: 1.56 ± 0.56 %ID/g
- Biodistribution, Skin [3, 5]: 4.68 ± 1.06 %ID/g
- Biodistribution, Sm Intestine [3, 5]: 0.28 ± 0.02 %ID/g
- Biodistribution, Spleen [3, 5]: 0.39 ± 0.09 %ID/g
- Biodistribution, Stomach (with contents) [3, 5]: 0.21 ± 0.12 %ID/g
- Tumor/organ ratio, Adipose [3, 5]: 3.2 ± 1.5
- Tumor/organ ratio, Bone (femur) [3, 5]: 5.3 ± 1.6
- Tumor/organ ratio, C6 Tumor [3, 5]: 0.7 ± 0.1
- Tumor/organ ratio, Heart [3, 5]: 49 ± 36
- Tumor/organ ratio, LS174T Tumor [3, 5]: 1
- Tumor/organ ratio, LS174T tumor-to-Blood [3, 5]: 18 ± 2
- Tumor/organ ratio, Lg Intestine [3, 5]: 80 ± 36
- Tumor/organ ratio, Liver [3, 5]: 13.9 ± 3.7
- Tumor/organ ratio, Lung [3, 5]: 7.2 ± 3.7
- Tumor/organ ratio, Muscle [3, 5]: 5.3 ± 1.6
- Tumor/organ ratio, Skin [3, 5]: 1.7 ± 0.4
- Tumor/organ ratio, Sm Intestine [3, 5]: 27 ± 4
- Tumor/organ ratio, Spleen [3, 5]: 20 ± 5
- Tumor/organ ratio, Stomach (with contents) [3, 5]: 48 ± 22
- Biodistribution, Adipose [3, 4]: 0.67 ± 0.12 %ID/g
- Biodistribution, Blood [3, 4]: 0.04 ± 0.01 %ID/g
- Biodistribution, Bone (femur) [3, 4]: 0.43 ± 0.12 %ID/g
- Biodistribution, C6 Tumor (antigen-negative) [3, 4]: 4.23 ± 0.54 (0.26 ± 0.07 g) %ID/g
- Biodistribution, Heart [3, 4]: 0.05 ± 0.01 %ID/g
- Biodistribution, Kidneys (both) [3, 4]: 0.88 ± 0.16 %ID/g
- Biodistribution, LS174T Tumor (antigen-positive) [3, 4]: 14.3 ± 1.8 %ID/g and 14.34 ± 1.83 (0.21 ± 0.10 g) %ID/g
- Biodistribution, Lg Intestine [3, 4]: 0.52 ± 0.56 %ID/g
- Biodistribution, Liver [3, 4]: 0.51 ± 0.23 %ID/g
- Biodistribution, Lung [3, 4]: 0.37 ± 0.07 %ID/g
- Biodistribution, Muscle [3, 4]: 0.41 ± 0.24 %ID/g
- Biodistribution, Skin [3, 4]: 1.05 ± 0.25 %ID/g
- Biodistribution, Sm Intestine [3, 4]: 0.08 ± 0.04 %ID/g
- Biodistribution, Spleen [3, 4]: 0.29 ± 0.09 %ID/g
- Biodistribution, Stomach (with contents) [3, 4]: 0.09 ± 0.07 %ID/g
- Tumor/organ ratio, Adipose [3, 4]: 23 ± 6
- Tumor/organ ratio, Bone (femur) [3, 4]: 38 ± 16
- Tumor/organ ratio, C6 Tumor [3, 4]: 3.4 ± 0.3
- Tumor/organ ratio, Heart [3, 4]: 323 ± 108
- Tumor/organ ratio, LS174T Tumor [3, 4]: 1
- Tumor/organ ratio, LS174T tumor-to-Blood [3, 4]: 380 ± 90
- Tumor/organ ratio, Lg Intestine [3, 4]: 83 ± 53
- Tumor/organ ratio, Liver [3, 4]: 33 ± 11
- Tumor/organ ratio, Lung [3, 4]: 39 ± 3
- Tumor/organ ratio, Muscle [3, 4]: 57 ± 41
- Tumor/organ ratio, Skin [3, 4]: 14 ± 2
- Tumor/organ ratio, Sm Intestine [3, 4]: 217 ± 76
- Tumor/organ ratio, Spleen [3, 4]: 52 ± 12
- Tumor/organ ratio, Stomach (with contents) [3, 4]: 252 ± 119
- Biodistribution, Adipose [3, 6]: 0.60 ± 0.29 %ID/g
- Biodistribution, Bone (femur) [3, 6]: 0.24 ± 0.10 %ID/g
- Biodistribution, C6 Tumor (antigen-negative) [3, 6]: 2.89 ± 2.28 (0.28 ± 0.13 g) %ID/g
- Biodistribution, Heart [3, 6]: 0.07 ± 0.03 %ID/g
- Biodistribution, Kidneys (both) [3, 6]: 0.62 ± 0.19 %ID/g
- Biodistribution, LS174T Tumor (antigen-positive) [3, 6]: 13.44 ± 3.25 (0.49 ± 0.09 g) %ID/g
- Biodistribution, Lg Intestine [3, 6]: 0.11 ± 0.04 %ID/g
- Biodistribution, Liver [3, 6]: 0.56 ± 0.35 %ID/g
- Biodistribution, Lung [3, 6]: 0.21 ± 0.04 %ID/g
- Biodistribution, Muscle [3, 6]: 0.15 ± 0.07 %ID/g
- Biodistribution, Skin [3, 6]: 0.71 ± 0.20 %ID/g
- Biodistribution, Sm Intestine [3, 6]: 0.14 ± 0.11 %ID/g
- Biodistribution, Spleen [3, 6]: 0.64 ± 0.60 %ID/g
- Biodistribution, Stomach (with contents) [3, 6]: 0.22 ± 0.24 %ID/g
- Tumor/organ ratio, Adipose [3, 6]: 28 ± 13
- Tumor/organ ratio, Bone (femur) [3, 6]: 60 ± 19
- Tumor/organ ratio, C6 Tumor [3, 6]: 10 ± 9
- Tumor/organ ratio, Heart [3, 6]: 244 ± 85
- Tumor/organ ratio, LS174T Tumor [3, 6]: 1
- Tumor/organ ratio, Lg Intestine [3, 6]: 128 ± 16
- Tumor/organ ratio, Liver [3, 6]: 32 ± 13
- Tumor/organ ratio, Lung [3, 6]: 63 ± 6
- Tumor/organ ratio, Muscle [3, 6]: 105 ± 40
- Tumor/organ ratio, Skin [3, 6]: 20 ± 8
- Tumor/organ ratio, Sm Intestine [3, 6]: 183 ± 129
- Tumor/organ ratio, Spleen [3, 6]: 40 ± 21
- Tumor/organ ratio, Stomach (with contents) [3, 6]: 276 ± 236
